The target in test [1] is Macrophage colony-stimulating factor 1 receptor (Homo sapiens) (UniProt P07333). Put plainly: Selectivity interaction (KinomeScan (DiscoverX)) EUB0000595a CSF1R. The following applies: at 10 µM.
Test [2] has as its target Mitogen-activated protein kinase kinase kinase 11 (Homo sapiens) (UniProt Q16584). Put plainly: Selectivity interaction (KinomeScan (DiscoverX)) EUB0000695a MAP3K11. The conditions noted are these: at 100 nM.
Test [3] has as its target T1, Megakaryocyte-associated tyrosine-protein kinase (Homo sapiens) (UniProt P42679).
T1 sequence (whole entry): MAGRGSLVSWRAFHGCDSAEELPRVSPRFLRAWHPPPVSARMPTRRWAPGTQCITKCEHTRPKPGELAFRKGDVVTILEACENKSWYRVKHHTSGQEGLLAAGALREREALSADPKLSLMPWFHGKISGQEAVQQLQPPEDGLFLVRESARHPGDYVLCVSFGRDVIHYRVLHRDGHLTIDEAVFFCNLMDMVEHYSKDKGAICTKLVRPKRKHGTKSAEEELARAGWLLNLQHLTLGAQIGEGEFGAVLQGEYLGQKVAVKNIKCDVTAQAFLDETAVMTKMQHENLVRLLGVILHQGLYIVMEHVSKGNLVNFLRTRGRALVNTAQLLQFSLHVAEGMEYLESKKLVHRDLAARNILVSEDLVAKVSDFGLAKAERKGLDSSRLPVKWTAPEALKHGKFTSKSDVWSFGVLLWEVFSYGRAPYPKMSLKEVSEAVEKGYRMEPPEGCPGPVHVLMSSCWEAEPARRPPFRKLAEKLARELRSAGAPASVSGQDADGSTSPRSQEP
Nature of the test: Selectivity interaction (SelectScreen profiling (Invitrogen)) EUB0000607a MATK. The following applies: at 2 µM.

Test [4] has as its target Serine/threonine-protein kinase 38-like (Homo sapiens) (UniProt Q9Y2H1). Put plainly: Selectivity interaction (ActivX KiNativ screen (kinase selectivity in THP-1 cell lysates)) EUB0000639a STK38L. The following applies: lysate. It counts as subcellular.
For test [5], the target named is T2, Cyclin-dependent kinase 11A (Homo sapiens) (UniProt Q9UQ88).
T2 sequence (whole entry): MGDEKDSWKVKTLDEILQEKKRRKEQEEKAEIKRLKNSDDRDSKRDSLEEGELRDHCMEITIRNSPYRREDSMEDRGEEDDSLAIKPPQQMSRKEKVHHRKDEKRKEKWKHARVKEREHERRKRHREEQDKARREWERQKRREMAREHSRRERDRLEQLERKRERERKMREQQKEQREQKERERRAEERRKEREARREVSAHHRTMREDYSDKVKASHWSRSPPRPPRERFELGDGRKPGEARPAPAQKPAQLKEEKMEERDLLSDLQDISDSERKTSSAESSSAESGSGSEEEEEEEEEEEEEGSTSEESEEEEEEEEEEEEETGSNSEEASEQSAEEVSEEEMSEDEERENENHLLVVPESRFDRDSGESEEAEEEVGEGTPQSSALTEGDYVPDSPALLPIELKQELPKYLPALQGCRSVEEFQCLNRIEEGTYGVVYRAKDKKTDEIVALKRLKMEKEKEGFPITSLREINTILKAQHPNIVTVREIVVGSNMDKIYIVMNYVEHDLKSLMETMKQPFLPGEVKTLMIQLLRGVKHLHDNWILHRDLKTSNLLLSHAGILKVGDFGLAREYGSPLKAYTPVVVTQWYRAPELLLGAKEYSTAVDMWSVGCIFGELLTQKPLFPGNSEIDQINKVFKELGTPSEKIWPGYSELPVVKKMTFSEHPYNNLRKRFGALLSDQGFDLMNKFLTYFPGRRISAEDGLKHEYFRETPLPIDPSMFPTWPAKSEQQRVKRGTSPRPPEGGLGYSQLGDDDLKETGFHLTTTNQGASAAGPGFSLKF
Put plainly: Selectivity interaction (ActivX KiNativ screen (kinase selectivity in THP-1 cell lysates)) EUB0000639a CDK11A. The class given is subcellular. The conditions noted are these: lysate, at 0.2 µM.

Test [6] deals with Casein kinase II subunit alpha' (Homo sapiens) (UniProt P19784). Put plainly: Selectivity interaction (KinomeScan (DiscoverX)) EUB0000655a CSNK2A2. The conditions noted are these: at 10 µM.
Test [7] addresses T3, Serine/threonine-protein kinase LATS1 (Homo sapiens) (UniProt O95835).
T3 sequence (whole entry): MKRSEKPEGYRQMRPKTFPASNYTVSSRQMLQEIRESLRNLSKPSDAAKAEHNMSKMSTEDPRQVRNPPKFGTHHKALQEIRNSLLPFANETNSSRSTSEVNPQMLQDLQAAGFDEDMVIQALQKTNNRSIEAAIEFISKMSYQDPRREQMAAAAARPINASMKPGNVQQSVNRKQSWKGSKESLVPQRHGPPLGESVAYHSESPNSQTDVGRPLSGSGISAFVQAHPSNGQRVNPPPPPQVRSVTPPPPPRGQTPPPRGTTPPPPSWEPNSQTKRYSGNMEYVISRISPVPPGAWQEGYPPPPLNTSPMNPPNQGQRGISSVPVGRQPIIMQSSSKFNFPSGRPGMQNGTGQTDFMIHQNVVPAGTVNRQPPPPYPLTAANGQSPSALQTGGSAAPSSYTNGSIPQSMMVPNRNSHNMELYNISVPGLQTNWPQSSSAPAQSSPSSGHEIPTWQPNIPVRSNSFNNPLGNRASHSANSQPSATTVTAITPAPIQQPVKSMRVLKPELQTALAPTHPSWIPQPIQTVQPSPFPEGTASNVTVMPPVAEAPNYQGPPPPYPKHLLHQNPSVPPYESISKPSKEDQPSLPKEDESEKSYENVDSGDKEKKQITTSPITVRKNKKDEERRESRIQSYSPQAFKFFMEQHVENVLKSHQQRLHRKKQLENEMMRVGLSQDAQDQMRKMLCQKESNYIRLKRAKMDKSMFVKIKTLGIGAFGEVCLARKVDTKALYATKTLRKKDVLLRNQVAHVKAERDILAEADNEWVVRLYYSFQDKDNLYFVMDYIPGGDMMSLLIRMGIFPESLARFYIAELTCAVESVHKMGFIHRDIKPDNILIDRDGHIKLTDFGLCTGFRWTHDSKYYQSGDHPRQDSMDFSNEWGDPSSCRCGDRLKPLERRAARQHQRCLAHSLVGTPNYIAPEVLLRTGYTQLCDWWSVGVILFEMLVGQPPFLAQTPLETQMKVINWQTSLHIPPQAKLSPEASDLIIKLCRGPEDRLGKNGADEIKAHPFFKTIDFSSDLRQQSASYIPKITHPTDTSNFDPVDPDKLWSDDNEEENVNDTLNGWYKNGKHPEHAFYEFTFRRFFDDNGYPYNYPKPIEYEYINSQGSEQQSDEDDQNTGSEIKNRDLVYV
Nature of the test: Selectivity interaction (KinomeScan (DiscoverX)) EUB0000655a LATS1. The following applies: at 10 µM.

The target in test [8] is Atypical kinase COQ8A, mitochondrial (Homo sapiens, UniProt Q8NI60). Put plainly: Selectivity interaction (KinomeScan (DiscoverX)) EUB0000618a ADCK3. The following applies: at 10 µM.

Each structure is given as a SMILES string.

Chain of Serine/threonine-protein kinase 38-like (Homo sapiens) (Q9Y2H1 2-464 limits assumed): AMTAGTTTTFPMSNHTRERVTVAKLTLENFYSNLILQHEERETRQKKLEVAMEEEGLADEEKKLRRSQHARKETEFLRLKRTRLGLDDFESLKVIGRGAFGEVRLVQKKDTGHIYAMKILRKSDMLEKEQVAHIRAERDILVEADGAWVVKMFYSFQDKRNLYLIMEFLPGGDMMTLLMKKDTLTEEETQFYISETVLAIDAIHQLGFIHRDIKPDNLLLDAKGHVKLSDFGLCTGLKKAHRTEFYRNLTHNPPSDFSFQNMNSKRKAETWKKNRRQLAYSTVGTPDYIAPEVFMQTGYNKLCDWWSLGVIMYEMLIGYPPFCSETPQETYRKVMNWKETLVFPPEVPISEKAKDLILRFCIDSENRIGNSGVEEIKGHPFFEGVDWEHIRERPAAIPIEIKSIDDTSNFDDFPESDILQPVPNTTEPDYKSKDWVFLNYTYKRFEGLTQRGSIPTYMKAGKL
Chain of Atypical kinase COQ8A, mitochondrial (Q8NI60 163-647 limits assumed): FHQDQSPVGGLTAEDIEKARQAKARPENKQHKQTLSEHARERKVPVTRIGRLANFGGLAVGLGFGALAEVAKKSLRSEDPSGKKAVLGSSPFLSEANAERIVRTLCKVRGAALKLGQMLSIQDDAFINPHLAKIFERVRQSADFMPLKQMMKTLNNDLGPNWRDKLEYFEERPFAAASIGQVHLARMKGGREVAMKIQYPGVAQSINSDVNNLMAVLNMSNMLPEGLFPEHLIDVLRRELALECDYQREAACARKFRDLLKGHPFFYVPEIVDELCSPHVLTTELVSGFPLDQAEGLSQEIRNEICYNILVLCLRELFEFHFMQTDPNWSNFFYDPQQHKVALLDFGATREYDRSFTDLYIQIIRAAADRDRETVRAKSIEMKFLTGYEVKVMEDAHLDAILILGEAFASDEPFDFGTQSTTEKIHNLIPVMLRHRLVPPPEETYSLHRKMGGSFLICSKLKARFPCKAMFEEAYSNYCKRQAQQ
Chain of Casein kinase II subunit alpha' (Homo sapiens) (P19784 whole entry, looked up): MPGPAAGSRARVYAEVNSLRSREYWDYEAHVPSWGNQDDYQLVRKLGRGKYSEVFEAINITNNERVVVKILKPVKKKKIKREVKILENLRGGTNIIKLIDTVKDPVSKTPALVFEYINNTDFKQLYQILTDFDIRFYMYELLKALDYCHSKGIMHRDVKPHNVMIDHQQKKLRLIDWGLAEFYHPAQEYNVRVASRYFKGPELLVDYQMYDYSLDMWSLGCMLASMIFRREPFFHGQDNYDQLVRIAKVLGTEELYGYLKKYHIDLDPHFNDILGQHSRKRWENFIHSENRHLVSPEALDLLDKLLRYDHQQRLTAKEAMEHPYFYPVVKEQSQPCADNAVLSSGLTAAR
Chain of Macrophage colony-stimulating factor 1 receptor (Homo sapiens) (P07333 whole entry): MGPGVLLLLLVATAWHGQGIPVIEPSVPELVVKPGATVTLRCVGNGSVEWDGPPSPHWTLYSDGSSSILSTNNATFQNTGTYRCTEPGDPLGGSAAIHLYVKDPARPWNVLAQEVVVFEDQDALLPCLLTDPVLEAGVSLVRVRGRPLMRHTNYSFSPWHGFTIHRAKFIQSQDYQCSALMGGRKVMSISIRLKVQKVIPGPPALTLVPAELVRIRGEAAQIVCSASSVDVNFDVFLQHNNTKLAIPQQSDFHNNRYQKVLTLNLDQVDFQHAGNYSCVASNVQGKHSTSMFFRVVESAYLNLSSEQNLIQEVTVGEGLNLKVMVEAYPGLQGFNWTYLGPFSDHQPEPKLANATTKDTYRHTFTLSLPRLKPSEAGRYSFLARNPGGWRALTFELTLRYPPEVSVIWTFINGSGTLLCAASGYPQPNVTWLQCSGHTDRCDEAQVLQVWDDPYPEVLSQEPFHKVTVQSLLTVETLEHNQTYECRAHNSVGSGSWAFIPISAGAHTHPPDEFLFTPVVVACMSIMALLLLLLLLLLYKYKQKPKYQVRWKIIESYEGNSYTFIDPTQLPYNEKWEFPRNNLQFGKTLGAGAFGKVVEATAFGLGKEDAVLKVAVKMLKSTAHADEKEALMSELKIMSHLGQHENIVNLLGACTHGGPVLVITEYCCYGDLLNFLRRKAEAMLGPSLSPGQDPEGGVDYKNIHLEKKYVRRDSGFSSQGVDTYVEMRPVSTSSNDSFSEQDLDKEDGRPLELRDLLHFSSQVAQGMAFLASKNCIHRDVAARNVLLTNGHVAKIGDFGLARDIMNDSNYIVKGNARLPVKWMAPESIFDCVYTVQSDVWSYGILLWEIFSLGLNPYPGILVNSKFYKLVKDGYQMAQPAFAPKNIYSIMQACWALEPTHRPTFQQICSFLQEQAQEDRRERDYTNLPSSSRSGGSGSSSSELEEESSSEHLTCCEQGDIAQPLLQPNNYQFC
Chain of Mitogen-activated protein kinase kinase kinase 11 (Homo sapiens) (Q16584 whole entry, looked up): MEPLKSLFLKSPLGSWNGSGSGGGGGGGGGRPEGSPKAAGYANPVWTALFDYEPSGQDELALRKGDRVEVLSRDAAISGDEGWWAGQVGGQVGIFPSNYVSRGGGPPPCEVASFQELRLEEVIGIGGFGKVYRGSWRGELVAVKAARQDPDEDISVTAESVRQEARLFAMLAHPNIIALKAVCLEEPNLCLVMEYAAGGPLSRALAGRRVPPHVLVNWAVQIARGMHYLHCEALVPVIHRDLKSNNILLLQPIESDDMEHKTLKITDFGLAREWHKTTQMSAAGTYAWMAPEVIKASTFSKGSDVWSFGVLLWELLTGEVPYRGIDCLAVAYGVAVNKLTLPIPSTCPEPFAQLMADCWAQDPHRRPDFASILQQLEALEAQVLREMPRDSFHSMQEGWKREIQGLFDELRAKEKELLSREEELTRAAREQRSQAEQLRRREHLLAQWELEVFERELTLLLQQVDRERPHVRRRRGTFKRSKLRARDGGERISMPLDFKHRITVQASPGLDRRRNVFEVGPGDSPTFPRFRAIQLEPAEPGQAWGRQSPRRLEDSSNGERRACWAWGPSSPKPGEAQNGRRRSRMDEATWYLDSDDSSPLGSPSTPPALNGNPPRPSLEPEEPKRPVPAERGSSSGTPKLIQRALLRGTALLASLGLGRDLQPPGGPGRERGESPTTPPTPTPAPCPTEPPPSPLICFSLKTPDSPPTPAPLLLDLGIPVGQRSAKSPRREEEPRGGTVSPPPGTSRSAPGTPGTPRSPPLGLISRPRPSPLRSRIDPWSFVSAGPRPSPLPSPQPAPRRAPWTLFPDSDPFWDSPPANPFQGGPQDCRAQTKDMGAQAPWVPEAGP

Regarding `COCC(=O)NC/C=C/c1ccc2ncnc(Nc3ccc(Oc4ccc(C)nc4)c(C)c3)c2c1` [CP-724714], in test [1], the % of control amounted to 100%.
For the molecule `Cc1cc(F)c(C(=O)Nc2cccc(-c3nncn3C(C)C)n2)cc1-n1cnc(C2CC2)c1`, the % of control in test [2] turned out to be 79%.
With `CNC(=O)Nc1ccc(-c2nc(N3CC4CCC(C3)O4)c3cnn(C4CCC5(CC4)OCCO5)c3n2)cc1`, the % of inhibition in test [3] turned out to be 2%.
With `CC[C@@H]1[C@H](F)C(=O)N[C@@H]1COc1nccc2cc(C(N)=O)c(OC)cc12` [ZIMLOVISERTIB], the % of inhibition is 5.2% in test [4] (at 0.01 µM); -2% in test [4] (at 0.04 µM); 12% in test [4] (at 0.2 µM); 51.5% in test [4] (at 1 µM); 82.9% in test [4] (at 5 µM); 7.2% in test [5].
Consider `CN(C)CCOc1ccc(-c2nc(-c3ccncc3)c(-c3ccc4c(c3)CC/C4=N\O)[nH]2)cc1`, for which the % of control in test [6] was 74%; in test [7], 87%.
Regarding `O[C@H]1CC[C@H](Nc2ncc3nc(Nc4c(F)cc(F)cc4F)n([C@H]4CCOC4)c3n2)CC1`, the % of control in test [8] stood at 35%.

The values above are taken from ChEMBL document CHEMBL5465560, “Selectivity Literature for EUbOPEN Chemogenomic Library” (2024).
